Legend:
HEK293 cells [1] = assay: Preliminary screening as DNA vectors, GFP transfection of HEK293 cells; assay type: cell-based; conditions: HEK293 cells; lipid/DOPE liposome with 75 ng plasmid DNA (psin-EGFP-IRES-Puro); number of cells expressing GFP divided by total number of nuclei (Hoechst)
Summary of the method: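 HEK293 cells in DMEM/10% FBS transfected with 75 ng EGFP plasmid per well complexed with amino lipid/DOPE liposomes in pH 5.6 sodium acetate. Hoechst nuclear stain added 20-24 h post-transfection, then cells cultured another 20-24 h. Confocal imaging gives GFP-positive cells as % of total nuclei.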

HEK293 cells [2] = assay: Preliminary screening as mRNA vectors, EGFP mRNA transfection of HEK293 cells; assay type: cell-based; conditions: HEK293 cells, 96-well plates, EGFP mRNA 50 ng per well; percentage of GFP fluorescent cells relative to total number of cells (Hoechst)
Summary of the method: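 HEK293 cells in DMEM plus 10% FBS transfected in 96-well format with 50 ng EGFP mRNA per well; Lipofectamine2000 served as positive control. Read-out is the percentage of GFP-fluorescent cells among total cells, counted by Hoechst nuclear stain.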

Row | Compound | Absolute DNA transfection efficiency in HEK293 cells (HEK293 cells [1]) [%] | Absolute mRNA transfection efficiency in HEK293 cells (HEK293 cells [2]) [%]
1 | CCCCCCCCNc1nc(NCCCCCCCC)nc(NCCN2CCN(C)CC2)n1 [Compound N8N8D5] | 0.0 | 0.0
2 | CCCCCCCCNc1nc(NCCCCCCCC)nc(NCCCN(C)C)n1 [Compound N8N8D6] | 0.0 | 0.0
3 | CCCCCCCCNc1nc(NCCCCCCCC)nc(NCCN(CC)CC)n1 [Compound N8N8D7] | 0.0 | 0.0
4 | CCCCCCCCNc1nc(NCCCCCCCC)nc(NCCCN2CCOCC2)n1 [Compound N8N8D8] | 0.0 | 0.0
5 | CCCCCCCCNc1nc(NCCCCCCCC)nc(NCCCN2CCN(C)CC2)n1 [Compound N8N8D9] | 0.7 | 0.0
6 | CCCCCCCCNc1nc(NCCCCCCCC)nc(NCC2CCN(C)CC2)n1 [Compound N8N8D10] | 0.0 | 0.0
7 | CCCCCCCCCNc1nc(NCCCCCCCC)nc(NCCN(C)C)n1 [Compound N8N9D1] | 0.0 | 0.8
8 | CCCCCCCCCNc1nc(NCCCCCCCC)nc(NCCN2CCOCC2)n1 [Compound N8N9D2] | 0.0 | 0.3
9 | CCCCCCCCCNc1nc(NCCCCCCCC)nc(NCCN2CCCC2)n1 [Compound N8N9D3] | 0.5 | 0.5
10 | CCCCCCCCCNc1nc(NCCCCCCCC)nc(NCCN2CCCCC2)n1 [Compound N8N9D4] | 0.0 | 0.0
11 | CCCCCCCCCNc1nc(NCCCCCCCC)nc(NCCN2CCN(C)CC2)n1 [Compound N8N9D5] | 0.0 | 0.0
12 | CCCCCCCCCNc1nc(NCCCCCCCC)nc(NCCCN(C)C)n1 [Compound N8N9D6] | 0.4 | 0.0
13 | CCCCCCCCCNc1nc(NCCCCCCCC)nc(NCCN(CC)CC)n1 [Compound N8N9D7] | 0.0 | 0.0
14 | CCCCCCCCCNc1nc(NCCCCCCCC)nc(NCCCN2CCOCC2)n1 [Compound N8N9D8] | 0.0 | 0.0
15 | CCCCCCCCCNc1nc(NCCCCCCCC)nc(NCCCN2CCN(C)CC2)n1 [Compound N8N9D9] | 0.0 | 0.0
16 | CCCCCCCCCNc1nc(NCCCCCCCC)nc(NCC2CCN(C)CC2)n1 [Compound N8N9D10] | 0.5 | 0.2
17 | CCCCCCCCCCCNc1nc(NCCCCCCCC)nc(NCCN(C)C)n1 [Compound N8N11D1] | 0.4 | 0.0
18 | CCCCCCCCCCCNc1nc(NCCCCCCCC)nc(NCCN2CCOCC2)n1 [Compound N8N11D2] | 0.0 | 0.0
19 | CCCCCCCCCCCNc1nc(NCCCCCCCC)nc(NCCN2CCCC2)n1 [Compound N8N11D3] | 3.6 | 4.2
20 | CCCCCCCCCCCNc1nc(NCCCCCCCC)nc(NCCN2CCCCC2)n1 [Compound N8N11D4] | 0.2 | 0.2
21 | CCCCCCCCCCCNc1nc(NCCCCCCCC)nc(NCCN2CCN(C)CC2)n1 [Compound N8N11D5] | 0.2 | 0.4
22 | CCCCCCCCCCCNc1nc(NCCCCCCCC)nc(NCCCN(C)C)n1 [Compound N8N11D6] | 0.3 | 0.1

Row | Compound | Absolute DNA transfection efficiency in HEK293 cells (HEK293 cells [1]) [%] | Absolute mRNA transfection efficiency in HEK293 cells (HEK293 cells [2]) [%]
23 | CCCCCCCCCCCNc1nc(NCCCCCCCC)nc(NCCN(CC)CC)n1 [Compound N8N11D7] | 0.0 | 0.0
24 | CCCCCCCCCCCNc1nc(NCCCCCCCC)nc(NCCCN2CCOCC2)n1 [Compound N8N11D8] | 0.0 | 0.1
25 | CCCCCCCCCCCNc1nc(NCCCCCCCC)nc(NCCCN2CCN(C)CC2)n1 [Compound N8N11D9] | 0.0 | 0.0
26 | CCCCCCCCCCCNc1nc(NCCCCCCCC)nc(NCC2CCN(C)CC2)n1 [Compound N8N11D10] | 0.3 | 0.2
27 | CCCCCCCCCCCCNc1nc(NCCCCCCCC)nc(NCCN(C)C)n1 [Compound N8N12D1] | 0.6 | 0.5
28 | CCCCCCCCCCCCNc1nc(NCCCCCCCC)nc(NCCN2CCOCC2)n1 [Compound N8N12D2] | 0.0 | 0.0
29 | CCCCCCCCCCCCNc1nc(NCCCCCCCC)nc(NCCN2CCCC2)n1 [Compound N8N12D3] | 2.4 | 0.5
30 | CCCCCCCCCCCCNc1nc(NCCCCCCCC)nc(NCCN2CCCCC2)n1 [Compound N8N12D4] | 0.0 | 0.0
31 | CCCCCCCCCCCCNc1nc(NCCCCCCCC)nc(NCCN2CCN(C)CC2)n1 [Compound N8N12D5] | 0.6 | 0.9
32 | CCCCCCCCCCCCNc1nc(NCCCCCCCC)nc(NCCCN(C)C)n1 [Compound N8N12D6] | 0.4 | 0.1
33 | CCCCCCCCCCCCNc1nc(NCCCCCCCC)nc(NCCN(CC)CC)n1 [Compound N8N12D7] | 0.0 | 0.0
34 | CCCCCCCCCCCCNc1nc(NCCCCCCCC)nc(NCCCN2CCOCC2)n1 [Compound N8N12D8] | 0.0 | 0.0
35 | CCCCCCCCCCCCNc1nc(NCCCCCCCC)nc(NCCCN2CCN(C)CC2)n1 [Compound N8N12D9] | 0.0 | 0.0
36 | CCCCCCCCCCCCNc1nc(NCCCCCCCC)nc(NCC2CCN(C)CC2)n1 [Compound N8N12D10] | 0.7 | 2.3
37 | CCCCCCCCCCCCCNc1nc(NCCCCCCCC)nc(NCCN(C)C)n1 [Compound N8N13D1] | 2.2 | 0.0
38 | CCCCCCCCCCCCCNc1nc(NCCCCCCCC)nc(NCCN2CCOCC2)n1 [Compound N8N13D2] | 0.0 | 0.1
39 | CCCCCCCCCCCCCNc1nc(NCCCCCCCC)nc(NCCN2CCCC2)n1 [Compound N8N13D3] | 0.9 | 2.7
40 | CCCCCCCCCCCCCNc1nc(NCCCCCCCC)nc(NCCN2CCCCC2)n1 [Compound N8N13D4] | 0.7 | 0.2
41 | CCCCCCCCCCCCCNc1nc(NCCCCCCCC)nc(NCCN2CCN(C)CC2)n1 [Compound N8N13D5] | 0.0 | 0.0
42 | CCCCCCCCCCCCCNc1nc(NCCCCCCCC)nc(NCCCN(C)C)n1 [Compound N8N13D6] | 0.0 | 0.0
43 | CCCCCCCCCCCCCNc1nc(NCCCCCCCC)nc(NCCN(CC)CC)n1 [Compound N8N13D7] | 0.0 | 0.0
44 | CCCCCCCCCCCCCNc1nc(NCCCCCCCC)nc(NCCCN2CCOCC2)n1 [Compound N8N13D8] | 0.0 | 0.2

Source: patent US20230123334A1, “AMINO LIPID COMPOUND, PREPARATION METHOD THEREFOR, AND APPLICATION THEREOF” (SHENZHEN SHENXIN BIOTECHNOLOGY CO., LTD., priority 2020, published 2023)
